In US10626115B2, “Fused pyrimidinone and triazinone derivatives containing bridged nitrogen, their process of preparation and their therapeutic uses as antifungal and/or antiparasitic agents” (UNIVERSITE DE NANTES, priority 2015, dated 2020):
In brackets after ≈: the same amount, converted by molar mass.

Tests used:
[1] = test system: fluconazole-susceptible C. albicans strain: CAAL93; test: Antifungal susceptibility, spectrofluorimetric microdilution, CAAL93; type: cell-based; conditions: Candida albicans, read-out: MIC values CAAL93
Protocol: (§1) Eight strains of Candida spp. with various azoles-susceptibilities were used: • One fluconazole-susceptible C. albicans strain: CAAL93 • Two fluconazole-resistant C. albicans strains: CAAL111 (efflux pump) and CAAL117 (erg11 mutations+voriconazole-resistant) • five fluconazole-resistant Candida non albicans strains: C. krusei (CAKR7, CAKR8), C. glabrata (CAGL2), C. parapsilosis s.l. (CAPA1, CAPA2).
(§2) Antifungal susceptibility was evaluated with a spectrofluorimetric microdilution method.

[2] = test system: fluconazole-resistant C. albicans strain CAAL111 (efflux pump); test: microbe, parasite or virus in culture; type: cell-based; conditions: Candida albicans, read-out: MIC values CAAL111
Protocol: as §1, §2

[3] = test system: fluconazole-resistant C. glabrata (CAGL2); test: microbe, parasite or virus in culture; type: cell-based; conditions: Nakaseomyces glabratus, read-out: MIC values CAGL2
Protocol: as §1, §2

[4] = test system: fluconazole-resistant C. krusei (CAKR7); test: microbe, parasite or virus in culture; type: cell-based; conditions: Pichia kudriavzevii, read-out: MIC values CAKR7
Protocol: as §1, §2

[5] = test system: fluconazole-resistant C. krusei (CAKR8); test: microbe, parasite or virus in culture; type: cell-based; conditions: Pichia kudriavzevii, read-out: MIC values CAKR8
Protocol: as §1, §2

[6] = test system: fluconazole-resistant C. parapsilosis s.l. (CAPA1); test: microbe, parasite or virus in culture; type: cell-based; conditions: Lodderomyces parapsilosis, read-out: MIC values CAPA1
Protocol: as §1, §2

[7] = test system: fluconazole-resistant C. parapsilosis s.l. (CAPA2); test: microbe, parasite or virus in culture; type: cell-based; conditions: Lodderomyces parapsilosis, read-out: MIC values CAPA2
Protocol: as §1, §2

[8] = test system: A. fumigatus susceptible strain ASFU76; test: Antifungal susceptibility, spectrofluorimetric microdilution, ASFU76; type: cell-based, Aspergillus fumigatus; conditions: Aspergillus fumigatus, read-out: MIC values ASFU76
Protocol: (§3) Eleven strains of A. fumigatus with various itraconazole susceptibility were used: • Five susceptible strains: ASFU7, ASFU35A, ASFU38A, ASFU76 and ASFU78. • Six itraconazole-resistant strains: ASFU77 (erg11 mutation), ASFU13, ASFU17, ASFU19, ASFU20, ASFU23.
(§4) Antifungal susceptibility was evaluated with a spectrofluorimetric microdilution method. MIC was the concentration that was able to inhibit 80% of fluorescence measured in the control wells.

[9] = test system: A. fumigatus susceptible strain ASFU35A; test: Antifungal susceptibility, spectrofluorimetric microdilution, ASFU35A; type: cell-based, Aspergillus fumigatus; conditions: Aspergillus fumigatus, read-out: MIC values ASFU35A
Protocol: as §3, §4

[10] = test system: A. fumigatus susceptible strain ASFU38A; test: Antifungal susceptibility, spectrofluorimetric microdilution, ASFU38A; type: cell-based, Aspergillus fumigatus; conditions: Aspergillus fumigatus, read-out: MIC values ASFU38A
Protocol: as §3, §4

[11] = test system: A. fumigatus susceptible strain ASFU7; test: Antifungal susceptibility, spectrofluorimetric microdilution, ASFU7; type: cell-based, Aspergillus fumigatus; conditions: Aspergillus fumigatus, read-out: MIC values ASFU7
Protocol: as §3, §4

[12] = test system: A. fumigatus susceptible strain ASFU78; test: Antifungal susceptibility, spectrofluorimetric microdilution, ASFU78; type: cell-based, Aspergillus fumigatus; conditions: Aspergillus fumigatus, read-out: MIC values ASFU78
Protocol: as §3, §4

[13] = test system: A. fumigatus itraconazole-resistant strain ASFU77 (erg11 mutation); test: Antifungal susceptibility, spectrofluorimetric microdilution, ASFU77; type: cell-based, Aspergillus fumigatus; conditions: for MIC: Aspergillus fumigatus, read-out: MIC values ASFU77
Protocol: as §3, §4

[14] = Cytotoxicity on HeLa cells; type: cell-based, Human; conditions: human, 50% inhibition of control fluorescence
Protocol: Hela Human cell line was used in view to evaluate cytotoxicity. It was evaluated with a spectrofluorimetric microdilution method. IC50 was the concentration that was able to inhibit 50% of fluorescence measured in the control wells.

[15] = test system: Candida albicans strain (CAAL93); test: Murine systemic candidiasis; type: in vivo; conditions: neutropenic Swiss mice, CAAL93 i.v., 10 mg/kg per os once a day for 5 days
Protocol: Transiently neutropenic female Swiss mice were used for experiments on systemic candidiasis and invasive aspergillosis.
Mice were inoculated intravenously with a Candida albicans strain (CAAL93). Treatment was administrated once a day (10 mg/kg per os) for 5 days. […] Fungal burden of the kidney was evaluated in dead animals during the experimentation or in animals sacrificed at the end of the experimentation.

[16] = test system: promastigote stage of a Leishmania mexicana strain; test: Anti-Trypanosomatidae activity, promastigote stage, spectrofluorimetric microdilution; type: cell-based
Protocol: Compounds were evaluated on the promastigote stage of a Leishmania mexicana strain using a spectrofluorimetric microdilution method. Inhibitory concentration 50 (IC50) was the concentration that inhibited 50% of the control growth.

[17] = test system: fluconazole-resistant C. albicans strain CAAL117 (erg11 mutations+voriconazole-resistant); test: microbe, parasite or virus in culture; type: cell-based; conditions: for MIC: Candida albicans, read-out: MIC values CAAL117; for fold more active than voriconazole against CAAL117: compared with voriconazole
Protocol: as §1, §2

[18] = test system: A. fumigatus itraconazole-resistant strain ASFU13; test: Antifungal susceptibility, spectrofluorimetric microdilution, ASFU13; type: cell-based, Aspergillus fumigatus; conditions: for MIC: Aspergillus fumigatus, read-out: MIC values ASFU13
Protocol: as §3, §4

[19] = test system: A. fumigatus itraconazole-resistant strain ASFU17; test: Antifungal susceptibility, spectrofluorimetric microdilution, ASFU17; type: cell-based, Aspergillus fumigatus; conditions: Aspergillus fumigatus, read-out: MIC values ASFU17
Protocol: as §3, §4

[20] = test system: A. fumigatus itraconazole-resistant strain ASFU19; test: Antifungal susceptibility, spectrofluorimetric microdilution, ASFU19; type: cell-based, Aspergillus fumigatus; conditions: Aspergillus fumigatus, read-out: MIC values ASFU19
Protocol: as §3, §4

[21] = test system: A. fumigatus itraconazole-resistant strain ASFU20; test: Antifungal susceptibility, spectrofluorimetric microdilution, ASFU20; type: cell-based, Aspergillus fumigatus; conditions: for MIC: Aspergillus fumigatus, read-out: MIC values ASFU20
Protocol: as §3, §4

[22] = test system: A. fumigatus itraconazole-resistant strain ASFU23; test: Antifungal susceptibility, spectrofluorimetric microdilution, ASFU23; type: cell-based, Aspergillus fumigatus; conditions: for MIC: Aspergillus fumigatus, read-out: MIC values ASFU23
Protocol: as §3, §4

Row | Structure (SMILES) | MIC [1] [µg/mL] | MIC [2] [µg/mL] | MIC [3] [µg/mL] | MIC [4] [µg/mL] | MIC [5] [µg/mL] | MIC [8] [µg/mL] | MIC [9] [µg/mL] | MIC [10] [µg/mL] | MIC [11] [µg/mL] | MIC [12] [µg/mL] | MIC [13] [µg/mL] | MIC [17] [µg/mL] | fold more active than voriconazole against CAAL117 [17] [fold] | MIC [18] [µg/mL] | MIC [19] [µg/mL] | MIC [20] [µg/mL] | MIC [21] [µg/mL] | MIC [22] [µg/mL] | melting point [°C] | also measured
1 | C[C@@H](n1ccc2nc(-c3ccccc3)cn2c1=O)[C@](O)(Cn1cncn1)c1ccc(F)cc1F [Compound 29, 6-[(1R,2R)-2-(2,4-Difluorophenyl)-2-hydroxy-1-methyl-3-(1H-1,2,4-triazol-1-yl)propyl]-2-phenylimidazo[1,2-c]pyrimidin-5-one] | < 0.001 | 0.005 ± 0.002 (≈ 0.0108 µM) | 0.15 ± 0.01 (≈ 0.324 µM) | 1.28 ± 0.33 (≈ 2.77 µM) | 0.07 ± 0.02 (≈ 0.151 µM) | 6.66 ± 0.53 (≈ 14.4 µM) | 6.36 ± 1.42 (≈ 13.8 µM) | 6.86 ± 1 (≈ 14.8 µM) | 2.49 ± 0.13 (≈ 5.38 µM) | 5.93 ± 0.72 (≈ 12.8 µM) | 28.2 ± 21.9 (≈ 61 µM) |  |  |  |  |  |  |  |  | MIC [6]: 0.009 ± 0.003 µg/mL (≈ 0.0195 µM); MIC [7]: 0.007 ± 0.004 µg/mL (≈ 0.0151 µM); IC50 [14]: 25 µM; survival compared with the non-treated group ([15]; 28 days (compound 51, 14 days), p<0.05): significant longer survival; activity on fungal burden of the kidney compared to FLC ([15]; p<0.05): significantly higher when compared to FLC; fungal burden of the kidney ([15]; p<0.05 (compound 51 p<0.001)): significantly decreased; effectiveness against the promastigote stage of L. Mexicana, in words [16]: effective; IC50 ([16]; Leishmania mexicana, promastigote stage, 50% of control growth, read-out: L. mexicana (IC50 μM)): 2.8 ± 0.3 µM
2 | C[C@@H](n1ncc2cc(-c3ccc(Cl)cc3)cn2c1=O)[C@](O)(Cn1cncn1)c1ccc(F)cc1F [Compound 48, 7-(4-Chlorophenyl)-3-[(1R,2R)-2-(2,4-difluorophenyl)-2-hydroxy-1-methyl-3-(1,2,4-triazol-1-yl)propyl]-3H-pyrrolo[1,2-d][1,2,4]triazin-4-one] | < 0.001 | 0.018 ± 0.005 (≈ 0.0362 µM) | 0.061 ± 0.008 (≈ 0.123 µM) | 0.019 ± 0.001 (≈ 0.0382 µM) | 0.079 (≈ 0.159 µM) | 6.21 ± 0.18 (≈ 12.5 µM) | 6.11 ± 0.85 (≈ 12.3 µM) | 6.64 ± 1.1 (≈ 13.4 µM) | 6.07 ± 0.05 (≈ 12.2 µM) | 6.26 ± 0.73 (≈ 12.6 µM) | 9.27 ± 1.05 (≈ 18.7 µM) | 0.014 ± 0.001 (≈ 0.0282 µM) | 100 | 2.53 (≈ 5.09 µM) | > 49 | > 49 | 2.51 (≈ 5.05 µM) | 2.48 (≈ 4.99 µM) | 204 to 205 | activity against ITRA-resistant isolate ASFU13, in words [18]: active; MIC values against ITRA-resistant isolate carrying M220T mutation (ASFU77), in words [13]: in the micromolar range; activity against ITRA-resistant isolate ASFU20, in words [21]: active; activity against ITRA-resistant isolate ASFU23, in words [22]: active
3 | C[C@@H](n1ncc2cc(-c3ccc([N+](=O)[O-])cc3)cn2c1=O)[C@](O)(Cn1cncn1)c1ccc(F)cc1F [Compound 50, 3-[(1R,2R)-2-(2,4-Difluorophenyl)-2-hydroxy-1-methyl-3-(1,2,4-triazol-1-yl)propyl]-7-(4-nitrophenyl)-3H-pyrrolo[1,2-d][1,2,4]triazin-4-one] | < 0.001 | 0.017 ± 0.007 (≈ 0.0335 µM) | 0.074 ± 0.038 (≈ 0.146 µM) | 0.066 ± 0.009 (≈ 0.13 µM) | 0.039 ± 0.027 (≈ 0.0769 µM) | 8.23 ± 2.23 (≈ 16.2 µM) | 6.59 ± 0.04 (≈ 13 µM) | 8.86 (≈ 17.5 µM) | 8.31 ± 0.52 (≈ 16.4 µM) | 6.4 ± 1.07 (≈ 12.6 µM) | > 100 | 0.018 ± 0.001 (≈ 0.0355 µM) | 100 | 3.08 (≈ 6.07 µM) | > 50 | > 50 | 21.3 (≈ 42 µM) | 43 (≈ 84.7 µM) | 130 to 131 | 
